Values quoted from earlier work as cited in patent US8394287B2, “Non-aqueous heat transfer fluid and use thereof” (priority 2001, dated 2013).

Tested on: human
Conditions: Federal Register Vol. 63, No. 27, Feb. 10, 1998

OCCO [EG, ethylene glycol]
lethal dose for a human: approximately 1,570 mg/kg body mass
